The values below come from patent publication US6911221B2, “Anti-neoplastic drug” (priority 2001, dated 2005).

In one test the test system is NK and IL-2 activity. To be noted: oral; lung cancer implanted mice and normal mice; cited from earlier work.
The test system of the next test is S180 sarcoma. To be noted: subcutaneous transplantation; cited from earlier work.
The next test deals with LEWIS lung cancer. To be noted: subcutaneous transplantation; cited from earlier work.
The test system of the next test is B16 melanoma. The note with it: subcutaneous transplantation; cited from earlier work.
The subject of the next test is MADB106 tumor cells. As to the kind of experiment: Pulmonary metastasis count after tail vein injection of MADB106 tumor cells, with or without β-receptor agonist MP. The format is in vivo, Fischer rats. The note with it: for effect of β-receptor agonist on number of MADB106 metastases (in words): MP injected at tumor cell inoculation. How it is done:
3. The experimental animals were divided into a test group and a control group. The animals in the test group were fed with 0.1, 0.5, 2 g/kg body weight ACNO mixed and standard powdered rodent food to which water was added (test food), every day. The animals in the control group received the same wet food mixture without ACNO (control food) in the same amount. All animals were fed at regular times every day. To adjust animals to the feeding protocol, all rats received the wet mixture without ACNO for 3 days before each experiment. Thereafter, the animals were fed test food and control food, respectively. Rats from all groups consumed more than 95% of the food each day. Approximately 70% of it was consumed during the dark phase. Body weight of each animal was monitored twice a week during the experiment. 4. MADB106 tumor cell—MADB106 cell was obtained from a pulmonary metastasis of a mammary adenocarcinoma (MADB100) by a special incubation. 5. Induction and counting of tumor metastasis—Rats were lightly anesthetized with halothane, and then 10^5 MADB106 tumor cells were injected into their tail vein. […] Rats were anesthetized with halothane after they were fed with ACNO for 3 weeks counted from the day of tumor inoculation, and their lungs were removed and placed in Bouin solution (72% saturated picric acid solution, 23% formaldehyde [37% solution] and 5% glacial acetic acid) for 24 h. Thereafter, the lungs were washed with ethanol, and then the cell number of pulmonary metastasis were counted by two experimenters unaware of the group origin (in a blind technique), independently. The obtained data were analyzed statistically. […] healthy […] Fischer rats that were 7-8 weeks old and of 120-170 g body weight (48 females and 61 males), were randomly divided into 2 groups, an experiment group and a control group. […] Thereafter, the lungs were washed with ethanol, and then the cell number of pulmonary metastasis were counted by two experimenters unaware of the group origin (in a blind technique), independently. The obtained data were analyzed statistically.

As for `CC(C)=CCC[C@](C)(O)[C@H]1CC[C@]2(C)[C@@H]1[C@H](O)C[C@@H]1[C@@]3(C)CC[C@H](O[C@@H]4O[C@H](CO)[C@@H](O)[C@H](O)[C@H]4O[C@@H]4O[C@H](CO)[C@@H](O)[C@H](O)[C@H]4O)C(C)(C)[C@@H]3CC[C@]12C` [Rg3, ginsenoside Rg3], the IL-2 activity entry in the test on NK and IL-2 activity is recorded as “remarkably enhance”. In the test with NK and IL-2 activity, the NK activity entry is “remarkably enhance”. In addition, the inhibition rate with S180 sarcoma, with LEWIS lung cancer and with B16 melanoma was 50-60% each time.
As to `CC(C)NCC(O)c1cc(O)cc(O)c1` (centres unmarked) [MP, Metaproterenol], the “effect of β-receptor agonist on number of MADB106 metastases (in words)” value in the test with MADB106 tumor cells is “significantly increased the cells number of metastases”; in the test on MADB106 tumor cells (listed as Metaproterenol), “significantly increased the number of metastases”. For the same molecule, the “cell number of MADB106 metastases” value with MADB106 tumor cells (control food plus MP injection, NS controls 70+14) was 255+32.
